From patent EP4768018A1, “TOPICAL GEL FOR JAK INHIBITOR AND USE THEREOF” (Prime Gene Therapeutics Co., Ltd., priority 2023, dated 2025)
Values after ≈ are worked out from the molar mass of the structure shown. Values belong to the compound of their own block, whether it stands above or below them.

Columns and labels:
[1] = Long-term (24 months) stability study of crystal forms; format: physicochemical; details: for stability study result in words: 24 months
Description: In accordance with the stability study guidelines issued by the China's National Medical Products Administration (NMPA), stability studies were conducted on Crystal Forms I, IIa, and IIb. Samples were packaged in pharmaceutical low-density polyethylene bags, and long-term stability (24 months) was evaluated.

[2] = Crystal form conversion (room temperature; in the gel formulation, XRPD); format: physicochemical; details: for crystal form of the active pharmaceutical ingredient in the final gel formulation: after 3 days, XRPD, FIG. 5 to FIG. 6
Description: Crystal Form IIa converts to Crystal Form IIb within 1 hour at room temperature (58.6% RH). During the preparation of topical gel formulation, Crystal Form I and Crystal Form IIb were respectively used as active pharmaceutical ingredients.

[3] = Storage stability of Crystal Form III (NMR); format: physicochemical
Description: Add 15 mg of 2-{3-[3-amino-4-(7H-pyrrolo[2,3-d]pyrimidin-4-yl)-1H-pyrazol-1-yl]-1-(isopropylsulfonyl)azetidin-3-yl}acetonitrile to 3 mL of dioxane, heat to 40°C to dissolve and obtain a clear solution, filter, and allow the solution to crystallize by evaporation at 40°C to obtain Crystal Form III.

[4] = Solubility of crystal forms in 20% propylene glycol at 32°C; format: physicochemical
Description: (§1) Solubility Study of Various Crystal Forms
Solubility in 20% Propylene Glycol at 32°C (µg/mL)

[5] = Solubility of crystal forms at different pH (37°C, 24 h); format: physicochemical
Description: as §1
Solubility Measurement Results (37°C, 24 h)

[6] = Transdermal test of crystal forms as topical gel in rats (permeation, drug content in skin by LC/MS/MS); format: in vivo, rat; details: topical gel according to the compositions of Example 1; FIG. 10A and FIG. 10B; Crystal Form I versus Crystal Form IIb
Description: Crystal Forms I and IIb were prepared into topical gel formulations according to the compositions of Example 1, and transdermal tests were immediately conducted to determine their respective transdermal rates.
Blood samples were collected at 0.25, 0.5, 1, 2, 4, 6, 8, and 24 hours after topical administration. Using a small animal anesthesia machine, 0.3 mL of whole blood was collected from the retro-orbital venous plexus under isoflurane anesthesia and placed in heparin anticoagulant tubes. Samples were centrifuged at 4°C, 4000 rpm for 5 minutes, plasma was transferred to centrifuge tubes, and stored at -80°C until analysis. Samples in plasma were extracted using protein precipitation, and the extract was analyzed by LC/MS/MS. After the test, the drug on skin was washed off, and the rat skin at administration site was excised, homogenized, and analyzed by LC/MS/MS for drug content in the skin. Table 4 Drug Concentration in Skin 24 h After Topical Administration

- Appearance ([1]; 0 month): Off-white powder
- Content ([1]; 0 month): 99.8%
- Crystal Form ([1]; 0 month): IIa
- Loss on Drying ([1]; 0 month): 0.06%
- Related Substances Max Unknown Single Impurity ([1]; 0 month): 0.06%
- Related Substances Total Impurity ([1]; 0 month): 0.28%
- Appearance ([1]; 3 month): Off-white powder
- Crystal Form ([1]; 3 month): IIb
- Loss on Drying ([1]; 3 month): 0.18%
- Related Substances Max Unknown Single Impurity ([1]; 3 month): 0.08%
- Related Substances Total Impurity ([1]; 3 month): 0.28%
- Content ([1]; 3 month, 131040 min): 97.6%
- Appearance ([1]; 6 month): Off-white powder
- Crystal Form ([1]; 6 month): IIb
- Loss on Drying ([1]; 6 month): 0.19%
- Related Substances Max Unknown Single Impurity ([1]; 6 month): 0.11%
- Related Substances Total Impurity ([1]; 6 month): 0.27%
- Content ([1]; 6 month, 263520 min): 97.8%
- Appearance ([1]; 9 month): Off-white powder
- Crystal Form ([1]; 9 month): IIb
- Loss on Drying ([1]; 9 month): 0.24%
- Related Substances Max Unknown Single Impurity ([1]; 9 month): 0.06%
- Related Substances Total Impurity ([1]; 9 month): 0.24%
- Content ([1]; 9 month, 394560 min): 97.9%
- Appearance ([1]; 12 month): Off-white powder
- Crystal Form ([1]; 12 month): IIb
- Loss on Drying ([1]; 12 month): 0.20%
- Related Substances Max Unknown Single Impurity ([1]; 12 month): 0.09%
- Related Substances Total Impurity ([1]; 12 month): 0.22%
- Content ([1]; 12 month, 525600 min): 97.8%
- Appearance ([1]; 18 month): Off-white powder
- Crystal Form ([1]; 18 month): IIb
- Loss on Drying ([1]; 18 month): 0.16%
- Related Substances Max Unknown Single Impurity ([1]; 18 month): 0.07%
- Related Substances Total Impurity ([1]; 18 month): 0.26%
- Content ([1]; 18 month, 789120 min): 98.0%
- Appearance ([1]; 24 month): Off-white powder
- Crystal Form ([1]; 24 month): IIb
- Loss on Drying ([1]; 24 month): 0.25%
- Related Substances Max Unknown Single Impurity ([1]; 24 month): 0.08%
- Related Substances Total Impurity ([1]; 24 month): 0.29%
- Content ([1]; 24 month, 1.0512e+06 min): 97.8%
- time of conversion to Crystal Form IIb ([2]; room temperature (58.6% RH)): ≤ 1 h
Compound: CC(C)S(=O)(=O)N1CC(CC#N)(n2cc(-c3ncnc4[nH]ccc34)c(N)n2)C1 [Crystal Form IIa, 2-{3-[3-amino-4-(7H-pyrrolo[2,3-d]pyrimidin-4-yl)-1H-pyrazol-1-yl]-1-(isopropylsulfonyl)azetidin-3-yl}acetonitrile Crystal Form IIa]
- stability study result in words [1]: gradually absorbs moisture during storage and converts to Crystal Form IIb

- impurity formation ([3]; after storage, NMR): approximately 10%
- stability ([3]; in words): poor stability
Compound: CC(C)S(=O)(=O)N1CC(CC#N)(n2cc(-c3ncnc4[nH]ccc34)c(N)n2)C1 [Crystal Form III, 2-{3-[3-amino-4-(7H-pyrrolo[2,3-d]pyrimidin-4-yl)-1H-pyrazol-1-yl]-1-(isopropylsulfonyl)azetidin-3-yl}acetonitrile Crystal Form III]

- Solubility in 20% Propylene Glycol at 32°C ([4]; 10 min): 12.7 µg/mL (≈ 31.7 µM)
- Solubility in 20% Propylene Glycol at 32°C ([4]; 30 min): 26.9 µg/mL (≈ 67.2 µM)
- Solubility in 20% Propylene Glycol at 32°C ([4]; 1 h, 60 min): 35.8 µg/mL (≈ 89.4 µM)
- Solubility in 20% Propylene Glycol at 32°C ([4]; 2 h, 120 min): 42.1 µg/mL (≈ 105 µM)
- Solubility Conc. ([5]; pH 1.0, 1440 min): 464.2 µg/mL (≈ 1160 µM)
- Solubility Conc. ([5]; pH 2.0, 1440 min): 37.8 µg/mL (≈ 94.4 µM)
- Solubility Conc. ([5]; pH 3.8, 1440 min): 2.3 µg/mL (≈ 5.74 µM)
- Solubility Conc. ([5]; pH 4.5, 1440 min): 1.8 µg/mL (≈ 4.49 µM)
- Solubility Conc. ([5]; pH 5.5, 1440 min): 1.6 µg/mL (≈ 4 µM)
- Appearance ([1]; 0 month): Off-white powder
- Content ([1]; 0 month): 99.9%
- Loss on Drying ([1]; 0 month): 0.08%
- Related Substances Max Unknown Single Impurity ([1]; 0 month): 0.17%
- Related Substances Total Impurity ([1]; 0 month): 0.58%
- Appearance ([1]; 3 month): Off-white powder
- Loss on Drying ([1]; 3 month): 0.06%
- Related Substances Max Unknown Single Impurity ([1]; 3 month): 0.16%
- Related Substances Total Impurity ([1]; 3 month): 0.57%
- Content ([1]; 3 month, 131040 min): 100.1%
- Appearance ([1]; 6 month): Off-white powder
- Loss on Drying ([1]; 6 month): 0.08%
- Related Substances Max Unknown Single Impurity ([1]; 6 month): 0.17%
- Related Substances Total Impurity ([1]; 6 month): 0.57%
- Content ([1]; 6 month, 263520 min): 100.0%
- Appearance ([1]; 9 month): Off-white powder
- Loss on Drying ([1]; 9 month): 0.11%
- Related Substances Max Unknown Single Impurity ([1]; 9 month): 0.17%
- Related Substances Total Impurity ([1]; 9 month): 0.57%
- Content ([1]; 9 month, 394560 min): 99.8%
- Appearance ([1]; 12 month): Off-white powder
- Loss on Drying ([1]; 12 month): 0.09%
- Related Substances Max Unknown Single Impurity ([1]; 12 month): 0.17%
- Related Substances Total Impurity ([1]; 12 month): 0.55%
- Content ([1]; 12 month, 525600 min): 99.9%
- Appearance ([1]; 18 month): Off-white powder
- Loss on Drying ([1]; 18 month): 0.12%
- Related Substances Max Unknown Single Impurity ([1]; 18 month): 0.18%
- Related Substances Total Impurity ([1]; 18 month): 0.62%
- Content ([1]; 18 month, 789120 min): 99.7%
- Appearance ([1]; 24 month): Off-white powder
- Loss on Drying ([1]; 24 month): 0.10%
- Related Substances Max Unknown Single Impurity ([1]; 24 month): 0.16%
- Related Substances Total Impurity ([1]; 24 month): 0.59%
- Content ([1]; 24 month, 1.0512e+06 min): 99.8%
- stability study result in words [1]: good chemical stability
- crystal form of the active pharmaceutical ingredient in the final gel formulation [2]: exclusively in form IIb
- transdermal performance [6]: better transdermal performance
Compound: CC(C)S(=O)(=O)N1CC(CC#N)(n2cc(-c3ncnc4[nH]ccc34)c(N)n2)C1 [Crystal Form I, 2-{3-[3-amino-4-(7H-pyrrolo[2,3-d]pyrimidin-4-yl)-1H-pyrazol-1-yl]-1-(isopropylsulfonyl)azetidin-3-yl}acetonitrile Crystal Form I]

- Solubility in 20% Propylene Glycol at 32°C ([4]; 10 min): 6.1 µg/mL (≈ 15.2 µM)
- Solubility in 20% Propylene Glycol at 32°C ([4]; 30 min): 9.5 µg/mL (≈ 23.7 µM)
- Solubility in 20% Propylene Glycol at 32°C ([4]; 1 h, 60 min): 10.8 µg/mL (≈ 27 µM)
- Solubility in 20% Propylene Glycol at 32°C ([4]; 2 h, 120 min): 11.2 µg/mL (≈ 28 µM)
- Solubility in 20% Propylene Glycol at 32°C ([4]; 18 h, 1080 min): 13.3 µg/mL (≈ 33.2 µM)
- Solubility Conc. ([5]; pH 1.0, 1440 min): 149.9 µg/mL (≈ 374 µM)
- Solubility Conc. ([5]; pH 2.0, 1440 min): 17.4 µg/mL (≈ 43.4 µM)
- Solubility Conc. ([5]; pH 3.8, 1440 min): 0.9 µg/mL (≈ 2.25 µM)
- Solubility Conc. ([5]; pH 4.5, 1440 min): 0.7 µg/mL (≈ 1.75 µM)
- Solubility Conc. ([5]; pH 5.5, 1440 min): 0.5 µg/mL (≈ 1.25 µM)
- Solubility Conc. ([5]; pH 6.8, 1440 min): 0.6 µg/mL (≈ 1.5 µM)
- Solubility Conc. ([5]; pH 7.0, 1440 min): 0.8 µg/mL (≈ 2 µM)
- Solubility Conc. ([5]; pH 8.0, 1440 min): 0.7 µg/mL (≈ 1.75 µM)
- Appearance ([1]; 0 month): Off-white powder
- Content ([1]; 0 month): 99.7%
- Crystal Form ([1]; 0 month): IIb
- Loss on Drying ([1]; 0 month): 0.36%
- Related Substances Max Unknown Single Impurity ([1]; 0 month): 0.07%
- Related Substances Total Impurity ([1]; 0 month): 0.38%
- Appearance ([1]; 3 month): Off-white powder
- Crystal Form ([1]; 3 month): IIb
- Loss on Drying ([1]; 3 month): 0.36%
- Related Substances Max Unknown Single Impurity ([1]; 3 month): 0.08%
- Related Substances Total Impurity ([1]; 3 month): 0.38%
- Content ([1]; 3 month, 131040 min): 99.7%
- Appearance ([1]; 6 month): Off-white powder
- Crystal Form ([1]; 6 month): IIb
- Loss on Drying ([1]; 6 month): 0.39%
- Related Substances Max Unknown Single Impurity ([1]; 6 month): 0.08%
- Related Substances Total Impurity ([1]; 6 month): 0.37%
- Content ([1]; 6 month, 263520 min): 99.6%
- Appearance ([1]; 9 month): Off-white powder
- Crystal Form ([1]; 9 month): IIb
- Loss on Drying ([1]; 9 month): 0.34%
- Related Substances Max Unknown Single Impurity ([1]; 9 month): 0.08%
- Related Substances Total Impurity ([1]; 9 month): 0.38%
- Content ([1]; 9 month, 394560 min): 99.5%
- Appearance ([1]; 12 month): Off-white powder
- Crystal Form ([1]; 12 month): IIb
- Loss on Drying ([1]; 12 month): 0.30%
- Related Substances Max Unknown Single Impurity ([1]; 12 month): 0.07%
- Related Substances Total Impurity ([1]; 12 month): 0.37%
- Content ([1]; 12 month, 525600 min): 99.6%
- Appearance ([1]; 18 month): Off-white powder
- Crystal Form ([1]; 18 month): IIb
- Loss on Drying ([1]; 18 month): 0.31%
- Related Substances Max Unknown Single Impurity ([1]; 18 month): 0.07%
- Related Substances Total Impurity ([1]; 18 month): 0.39%
- Content ([1]; 18 month, 789120 min): 99.6%
- Appearance ([1]; 24 month): Off-white powder
- Crystal Form ([1]; 24 month): IIb
- Loss on Drying ([1]; 24 month): 0.32%
- Related Substances Max Unknown Single Impurity ([1]; 24 month): 0.08%
- Related Substances Total Impurity ([1]; 24 month): 0.39%
- Content ([1]; 24 month, 1.0512e+06 min): 99.7%
- stability study result in words [1]: good chemical stability
- crystal form of the active pharmaceutical ingredient in the final gel formulation [2]: exclusively in form IIb
Compound: CC(C)S(=O)(=O)N1CC(CC#N)(n2cc(-c3ncnc4[nH]ccc34)c(N)n2)C1 [Crystal Form IIb, 2-{3-[3-amino-4-(7H-pyrrolo[2,3-d]pyrimidin-4-yl)-1H-pyrazol-1-yl]-1-(isopropylsulfonyl)azetidin-3-yl}acetonitrile Crystal Form IIb]
